Patent US10328029B2, “Pharmaceutical composition” (Cycle Pharmaceuticals, priority 2014, dated 2019)
“Also recorded” adds a separate entry of the source.

Tests used:
Type in all cases: physicochemical
[1] = API stability study of nitisinone under long-term and accelerated storage (HPLC)
Procedure: Data provided by the stability testing programme was conducted with the substance under investigation stored in the actual packaging used for storage and distribution. This was to determine if the substance remained compliant with the ICH specification criteria when tested over the period of its shelf life plus one year.
A sample of approximately 150 g of substance was used for the testing programme, with individual samples being approximately 7 g in size. The test was designed to simulate the product package, i.e. the sample was packed in a polythene bag, sealed and then placed inside another polythene bag liner. The sample was then held in a fibreboard cask with a fibreboard lid.
The sample was stored in an incubator maintained at 25° C.±2° C./60%±5% relative humidity (RH), and 40° C.±2° C./75%±5% RH.
After testing of an initial sample, a sample was tested at certain time intervals (Table 6), i.e. monthly (0 m, 1 m, 2 m, etc.).
There was no decrease in purity and the cyclised impurity remained below the identification threshold (0.10%) throughout the stability testing (measured by HPLC).
(§1) In the foregoing examples, the HPLC conditions were as follows: […]

[2] = Excipient compatibility: nitisinone mixed with fillers/lubricants, stored at 40° C./75% RH, cyclised impurity by HPLC
Procedure: In order to identify suitable excipients to develop a temperature stable formulation, 4 standard fillers and 5 lubricants were mixed with nitisinone and stored under accelerated conditions for 1 week and 3 weeks. 10 preparations for each excipient were prepared by weighing approximately 10 mg of nitisinone and 500 mg of the excipient into a glass vial and mixing together by gentle swirling. To 5 lots of preparations, 50 μl of water was added to wet the sample. For a control, 10 preparations of the drug substance were prepared by weighing approximately 10 mg nitisinone into a suitable glass vial and to 5 lots of preparations, 50 μl of water was added to wet the sample.
HPLC analysis was used to quantify the relative amount of the cyclised impurity (RRT 0.7) for each formulation at each time point (Tables 7 and 8).
as §1

[3] = Process stability of nitisinone in acetone, in water and on drying (HPLC purity)
Procedure: It is a requirement of GMP manufacturing that the final recrystallisation includes a filtration through a polishing filter to remove particulates, and so the GMP process would involve filtration of the hot acetone solution. This means that it is likely that the solution of Nitisinone in acetone at 45° C. could be held at elevated temperature for a prolonged period of time. The stability of stage 1 at 45° C. was tested over a 6 hour period to confirm that the Nitisinone would not degrade under these conditions (Table 4). […] Therefore, acetone could be used in the hot filtration step of the GMP process.
On scale-up, drying from water can often take much longer than on lab scale and could potentially result in degradation of the product, especially with a product that could potentially be prone to hydrolysis. Following filtration of Nitisinone from the final recrystallisation, the filter-cake was washed with water to remove the residual mother liquors. Due to its high solubility in acetone and other organic solvents, a solvent wash was not appropriate as high yield losses would likely be incurred. A water wash also helped remove residual inorganics. Drying studies were therefore carried out to determine the stability of the recrystallised material and try to ensure that there would be no unexpected degradation during the drying phase of the scale-up manufacture (Table 5).
Two separate batches were heated over a 60 hour period with purity and KF values taken (entries 1-10). […] A sample of Nitisinone was suspended in water and heated at 40° C. with no vacuum for 60 hours (entries 11-13), to simulate poor drying. […] A second sample was wetted each morning and dried under vacuum overnight to study the effect of repeatedly wetting and drying the sample (entries 14-19).

Stability of API over time ([1]; 25° C./60% RH, 0 m): 99.90% w/w
Stability of API over time ([1]; 25° C./60% RH, 1 m): 99.87% w/w
Stability of API over time ([1]; 25° C./60% RH, 2 m): 99.88% w/w
Stability of API over time ([1]; 25° C./60% RH, 3 m): 99.91% w/w
Stability of API over time ([1]; 25° C./60% RH, 6 m): 99.91% w/w
Stability of API over time ([1]; 40° C./75% RH, 0 m): 99.90% w/w
Stability of API over time ([1]; 40° C./75% RH, 1 m): 99.89% w/w
Stability of API over time ([1]; 40° C./75% RH, 2 m): 99.88% w/w
Stability of API over time ([1]; 40° C./75% RH, 3 m): 99.92% w/w
Stability of API over time ([1]; 40° C./75% RH, 6 m): 99.96% w/w
Cyclised Impurity - RRT 0.7 ([2]; 1 week, Dry): 0.02 norm %
Cyclised Impurity - RRT 0.7 ([2]; 1 week, Wet (50 μl water)): 0.07 norm %
Cyclised Impurity - RRT 0.7 ([2]; 3 weeks, Dry): 0.13 norm %
Cyclised Impurity - RRT 0.7 ([2]; 3 weeks, Wet (50 μl water)): 0.20 norm %
Cyclised Impurity - RRT 0.7 ([2]; Initial, about 10 mg nitisinone + 500 mg excipient): 0.01 norm %
stability of stage 1 nitisinone in acetone (purity, in words) ([3]; acetone, 45° C., over a 6 hour period): No loss of purity was observed
stability of Nitisinone in water (purity, in words) ([3]; suspended in water, heated at 40° C., no vacuum, 60 hours): No loss of purity was observed
stability of recrystallised Nitisinone to extended drying (purity, in words) ([3]; two batches heated over a 60 hour period): little to no loss in purity
SMILES: O=C1CCCC(=O)C1C(=O)c1ccc(C(F)(F)F)cc1[N+](=O)[O-] [Nitisinone, 2-[2-nitro-4-(trifluoromethyl)benzoyl] cyclohexane-1,3-dione]
API stability with respect to cyclised impurity (in words) ([1]; 25° C./60% RH and 40° C./75% RH, listed as API): no formation of the aforementioned cyclised impurity was observed; also recorded: no deviation from specification
